Key:
Experiment in all cases: competitive TR-FRET assay, BET-BD with acetylated peptide ligand
Assay type in all cases: binding
BRD2-BD1 = BRD2-BD1 (Homo sapiens (Human), UniProt P25440); details: BRD2-BD1; Table 11 additional modifications; read-out: 2.1 EC50
Experimental: (§1) Inhibitor potency was determined using a competitive TR-FRET assay as detailed herein, measuring interaction of the respective BET-BD with an acetylated peptide ligand (Table 2).

BRD2-BD2 = BRD2-BD2 (Homo sapiens (Human), UniProt P25440); details: for EC50: BRD2-BD2, Table 11 additional modifications, read-out: 2.2 EC50; for 2.1/2.2: ratio of BRD2-BD1 EC50 to BRD2-BD2 EC50 (selectivity)
Sequence of BRD2-BD2 (P25440 344-453): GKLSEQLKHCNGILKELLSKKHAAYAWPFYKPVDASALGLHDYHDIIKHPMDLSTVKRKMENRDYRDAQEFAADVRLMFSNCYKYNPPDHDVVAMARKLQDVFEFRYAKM
Experimental: as §1

BRD3-BD1 = BRD3-BD1 (Homo sapiens (Human), UniProt Q15059); details: BRD3-BD1; Table 11 additional modifications; read-out: 3.1 EC50
Sequence of BRD3-BD1 (Q15059 34-140): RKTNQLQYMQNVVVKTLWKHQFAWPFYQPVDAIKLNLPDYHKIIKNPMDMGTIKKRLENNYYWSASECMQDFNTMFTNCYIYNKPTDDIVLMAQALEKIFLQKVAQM
Experimental: as §1

BRD4-BD1 = BRD4-BD1 (Homo sapiens (Human), UniProt O60885); details: BRD4-BD1; Table 11 additional modifications; read-out: 4.1 EC50
Experimental: as §1

BRDT = BRDT (Homo sapiens, UniProt Q58F21); details: BRDT; Table 11 additional modifications; read-out: BRDT EC50
Experimental: as §1

Sequence of BRD2-BD1 (P25440 74-180): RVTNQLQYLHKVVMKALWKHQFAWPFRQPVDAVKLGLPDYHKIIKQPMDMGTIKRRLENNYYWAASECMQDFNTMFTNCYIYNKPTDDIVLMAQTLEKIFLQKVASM

Question: `CC(=O)N1c2ccc(-c3cccc(NCC4CC4)c3)cc2[C@H](NC(=O)OC(C)C)C[C@@H]1C` [compound 108] was tested. Which EC50 (BRD2-BD1) did it give?
Answer: 2500 nM

Question: What about the EC50 (BRD2-BD2) of the same compound?
Answer: 360 nM

Question: And the 2.1/2.2 (BRD2-BD2)?
Answer: 1.3

Question: And the EC50 (BRD3-BD1)?
Answer: 370 nM

Question: And the EC50 (BRD4-BD1)?
Answer: 1700 nM

Question: And the EC50 (BRDT)?
Answer: 59000 nM

Question: Which results are given for `CC(=O)N1c2ccc(-c3cccc(NCCCc4ccccc4)c3)cc2[C@H](NC(=O)OC(C)C)C[C@@H]1C` [compound 109]?
Answer: EC50 (BRD2-BD1): 11000 nM; EC50 (BRD2-BD2): 280 nM; 2.1/2.2 (BRD2-BD2): 5.6; EC50 (BRD3-BD1): 670 nM; EC50 (BRD4-BD1): > 11000 nM; EC50 (BRDT): 11000 nM

Question: Which EC50 (BRD2-BD1) does the source give for `CC(=O)N1c2ccc(-c3cccc(NC(=O)Cc4ccccc4)c3)cc2[C@H](NC(=O)OC(C)C)C[C@@H]1C` [compound 110] here?
Answer: 1300 nM

Question: What about the EC50 (BRD2-BD2) of the same compound?
Answer: 120 nM

Question: And the 2.1/2.2 (BRD2-BD2)?
Answer: 14

Question: What about the EC50 (BRD3-BD1) of the same compound?
Answer: 230 nM

Question: What about the EC50 (BRD4-BD1) of the same compound?
Answer: 1100 nM

Question: What about the EC50 (BRDT) of the same compound?
Answer: 1600 nM

Question: What does the source list for `CCCNc1cccc(-c2ccc3c(c2)[C@H](NC(=O)OC(C)C)C[C@H](C)N3C(C)=O)c1` [compound 111]?
Answer: EC50 (BRD2-BD1): 1900 nM; EC50 (BRD2-BD2): 520 nM; 2.1/2.2 (BRD2-BD2): 0.091; EC50 (BRD3-BD1): 650 nM; EC50 (BRD4-BD1): 1800 nM; EC50 (BRDT): 3900 nM

Question: How did the EC50 (BRD2-BD1) turn out when `CC(=O)N1c2ccc(-c3cccc(NCC4CCCCC4)c3)cc2[C@H](NC(=O)OC(C)C)C[C@@H]1C` [compound 112] was run?
Answer: 7200 nM

Question: What about the EC50 (BRD2-BD2) of the same compound?
Answer: 2500 nM

Question: And the 2.1/2.2 (BRD2-BD2)?
Answer: 3.6

Question: And the EC50 (BRD3-BD1)?
Answer: 2100 nM

Question: And the EC50 (BRD4-BD1)?
Answer: 5000 nM

Question: What about the EC50 (BRDT) of the same compound?
Answer: 4400 nM

Question: With `CC(=O)N1c2ccc(-c3cccc(NC(=O)C(C)(C)C)c3)cc2[C@H](NC(=O)OC(C)C)C[C@@H]1C` [compound 113] as the compound, how does the EC50 (BRD2-BD1) read?
Answer: 2200 nM

Question: What about the EC50 (BRD2-BD2) of the same compound?
Answer: 110 nM

Question: What about the 2.1/2.2 (BRD2-BD2) of the same compound?
Answer: 4.8

Question: What about the EC50 (BRD3-BD1) of the same compound?
Answer: 410 nM

Question: What about the EC50 (BRD4-BD1) of the same compound?
Answer: 1400 nM

Question: What about the EC50 (BRDT) of the same compound?
Answer: 7500 nM

Question: For `CCCCNc1cccc(-c2ccc3c(c2)[C@H](NC(=O)OC(C)C)C[C@H](C)N3C(C)=O)c1` [compound 114], which EC50 (BRD2-BD1) is on record?
Answer: 790 nM

Question: What about the EC50 (BRD2-BD2) of the same compound?
Answer: 50 nM

Question: And the 2.1/2.2 (BRD2-BD2)?
Answer: 9.1

Question: And the EC50 (BRD3-BD1)?
Answer: 120 nM

Question: What about the EC50 (BRD4-BD1) of the same compound?
Answer: 470 nM

Question: And the EC50 (BRDT)?
Answer: 52000 nM

Question: What does the source list for `CCC(=O)Nc1cccc(-c2ccc3c(c2)[C@H](NC(=O)OC(C)C)C[C@H](C)N3C(C)=O)c1` [compound 115]?
Answer: EC50 (BRD2-BD1): 370 nM; EC50 (BRD2-BD2): 40 nM; 2.1/2.2 (BRD2-BD2): 7.2; EC50 (BRD3-BD1): 90 nM; EC50 (BRD4-BD1): 160 nM; EC50 (BRDT): 330 nM

Question: With `CC(=O)N1c2ccc(-c3cccc(NC(=O)CCc4ccccc4)c3)cc2[C@H](NC(=O)OC(C)C)C[C@@H]1C` [compound 116] as the compound, how does the EC50 (BRD2-BD1) read?
Answer: 1200 nM

Question: What about the EC50 (BRD2-BD2) of the same compound?
Answer: 380 nM

Question: What about the 2.1/2.2 (BRD2-BD2) of the same compound?
Answer: 7.0

Question: What about the EC50 (BRD3-BD1) of the same compound?
Answer: 280 nM

Question: What about the EC50 (BRD4-BD1) of the same compound?
Answer: 2300 nM

Question: And the EC50 (BRDT)?
Answer: 1200 nM

Question: `CC(=O)N1c2ccc(-c3cccc(NCc4ccccc4)c3)cc2[C@H](NC(=O)OC(C)C)C[C@@H]1C` [compound 117] was tested. Which EC50 (BRD2-BD1) did it give?
Answer: 600 nM

Question: What about the EC50 (BRD2-BD2) of the same compound?
Answer: 100 nM

Question: And the 2.1/2.2 (BRD2-BD2)?
Answer: 39

Question: What about the EC50 (BRD3-BD1) of the same compound?
Answer: 230 nM

Question: What about the EC50 (BRD4-BD1) of the same compound?
Answer: 520 nM

Question: What about the EC50 (BRDT) of the same compound?
Answer: 1200 nM

Question: What does the source list for `COC(=O)c1ccc(N[C@@H]2C[C@H](C)N(C(C)=O)c3ccc(-c4cccc(NC(C)=O)c4)cc32)c(C)c1` [compound 160]?
Answer: EC50 (BRD2-BD1): 2200 nM; 2.1/2.2 (BRD2-BD2): 44; EC50 (BRD3-BD1): 3000 nM; EC50 (BRD4-BD1): > 30000 nM; EC50 (BRDT): 3300 nM

Question: What does the source list for `COC(=O)c1ccc(N[C@@H]2C[C@H](C)N(C(C)=O)c3ccc(-c4cccc(NC(C)=O)c4)cc32)c(OC)c1` [compound 161]?
Answer: EC50 (BRD2-BD1): 870 nM; EC50 (BRD2-BD2): 44 nM; 2.1/2.2 (BRD2-BD2): 20; EC50 (BRD3-BD1): > 30000 nM; EC50 (BRD4-BD1): > 30000 nM; EC50 (BRDT): 760 nM

Question: How did the EC50 (BRD2-BD1) turn out when `CCCCOc1cccc(-c2ccc3c(c2)[C@H](Nc2ccc(C(=O)OC)cc2)C[C@H](C)N3C(C)=O)c1` [compound 164] was run?
Answer: 22000 nM

Question: What about the EC50 (BRD2-BD2) of the same compound?
Answer: 220 nM

Question: What about the 2.1/2.2 (BRD2-BD2) of the same compound?
Answer: 100

Question: And the EC50 (BRD3-BD1)?
Answer: 30000 nM

Question: What about the EC50 (BRD4-BD1) of the same compound?
Answer: 57000 nM

Question: What about the EC50 (BRDT) of the same compound?
Answer: 32000 nM

Question: What does the source list for `COC(=O)c1ccc(N[C@@H]2C[C@H](C)N(C(C)=O)c3ccc(-c4cccc(OCCN5CCOCC5)c4)cc32)cc1` [compound 166]?
Answer: EC50 (BRD2-BD1): 130 nM; EC50 (BRD2-BD2): 20 nM; 2.1/2.2 (BRD2-BD2): 6.5; EC50 (BRD3-BD1): 150 nM; EC50 (BRD4-BD1): 640 nM; EC50 (BRDT): 280 nM

Reference: US11028051B2, “Tetrahydroquinoline-based bromodomain inhibitors” (St. Jude Children's Research Hospital, priority 2016, dated 2021)
